Assay results reported in patent US6875727B2, “Use of macrolides in pest control” (Syngenta Crop Protection, Inc., priority 1998, dated 2005).

What was measured:
Assay type in all cases: in vivo
[1] = test system: Heliothis virescens larvae; experiment: Spray action on transgenic cotton plants against Heliothis virescens larvae
Source text: (§1) Young transgenic cotton plants which express the δ-endotoxin CryIIIA are sprayed with an aqueous emulsion spray mixture comprising 100, 50, 10, 5, 1 ppm of emamectin-benzoate respectively. After the spray coating has dried on, the cotton plants are populated with 10 adult Anthonomus grandis, 10 Spodoptera littoralis larvae or 10 Heliothis virescens larvae respectively and introduced into a plastic container. Evaluation takes place 3 to 10 days later. The percentage reduction in population, or the percentage reduction in feeding damage (% action), is determined by comparing the number of dead beetles and the feeding damage on the transgenic cotton plants with that of non-transgenic cotton plants which have been treated with an emulsion spray mixture comprising emamectin-benzoate and conventional CryIIIA-toxin at a concentration of in each case 100, 50, 10, 5, 1 ppm respectively.
as §1, with “abamectin” for “emamectin-benzoate”
as §1, with “spinosad” for “emamectin-benzoate”
as §1, with “δ-endotoxin CryIa(c)” for “δ-endotoxin CryIIIA”, “of spinosad” for “of emamectin-benzoate”, “comprising spinosad” for “comprising emamectin-benzoate”
(§2) Young transgenic cotton plants which express the δ-endotoxin CryIa(c) are sprayed with an aqueous emulsion spray mixture comprising 100, 50, 10, 5, 1 ppm of abamectin respectively. After the spray coating has dried on, the cotton plants are populated with 10 adult Anthonomus grandis, 10 Spodoptera littoralis larvae or 10 Heliothis virescens larvae respectively and introduced into a plastic container. Evaluation takes place 3 to 10 days later. […]

[2] = test system: Spodoptera spp.; experiment: Plot test, maize cv. KnockOut vs conventional maize, natural infestation with Spodoptera spp.; conditions: for control of Spodoptera spp. on plot (a): plot (a) maize cv. KnockOut, spray 200, 100, 50, 10, 5, 1 ppm, evaluation 6 days later; for control level on plot (b): plot (b) conventional maize, also treated with 200, 100, 50, 10, 5, 1 ppm of the endotoxin expressed by KnockOut, 6 days
Description: (§3) A plot (a) planted with maize cv. KnockOut® and an adjacent plot (b) of the same size which is planted with conventional maize, both showing natural infestation with Ostrinia nubilalis, Spodoptera spp. or Heliothis, are sprayed with an aqueous emulsion spray mixture comprising 200, 100, 50, 10, 5, 1 ppm of spinosad. Immediately afterwards, plot (b) is treated with an emulsion spray mixture comprising 200, 100, 50, 10, 5, 1 ppm of the endotoxin expressed by KnockOut®. Evaluation takes place 6 days later. The percentage reduction in population (% action) is determined by comparing the number of dead pests on the plants of plot (a) with that on the plants of plot (b).
as §3, with “sp” for “spp.”, “abamectin.” for “spinosad.”
as §3, with “sp” for “spp.”, “emamectin benzoate.” for “spinosad.”

[3] = test system: Spodoptera littoralis larvae; experiment: Spray action on transgenic cotton plants against Spodoptera littoralis larvae
Source text: as §1
as §1, with “abamectin” for “emamectin-benzoate”
as §1, with “spinosad” for “emamectin-benzoate”
as §1, with “δ-endotoxin CryIa(c)” for “δ-endotoxin CryIIIA”, “of spinosad” for “of emamectin-benzoate”, “comprising spinosad” for “comprising emamectin-benzoate”
as §2

[4] = test system: Anthonomus grandis adults; experiment: Spray action on transgenic cotton plants against Anthonomus grandis adults
Source text: as §1
as §1, with “abamectin” for “emamectin-benzoate”
as §1, with “spinosad” for “emamectin-benzoate”
as §1, with “δ-endotoxin CryIa(c)” for “δ-endotoxin CryIIIA”, “of spinosad” for “of emamectin-benzoate”, “comprising spinosad” for “comprising emamectin-benzoate”
as §2

[5] = test system: Heliothis spp.; experiment: Plot test, maize cv. KnockOut vs conventional maize, natural infestation with Heliothis spp.; conditions: for control of Heliothis on plot (a): plot (a) maize cv. KnockOut, spray 200, 100, 50, 10, 5, 1 ppm, evaluation 6 days later; for control level on plot (b): plot (b) conventional maize, also treated with 200, 100, 50, 10, 5, 1 ppm of the endotoxin expressed by KnockOut, 6 days
Description: as §3
as §3, with “sp” for “spp.”, “abamectin.” for “spinosad.”
as §3, with “sp” for “spp.”, “emamectin benzoate.” for “spinosad.”

[6] = test system: Ostrinia nubilalis; experiment: Plot test, maize cv. KnockOut vs conventional maize, natural infestation with Ostrinia nubilalis; conditions: for control of Ostrinia nubilalis on plot (a): plot (a) maize cv. KnockOut, spray 200, 100, 50, 10, 5, 1 ppm, evaluation 6 days later; for control level on plot (b): plot (b) conventional maize, also treated with 200, 100, 50, 10, 5, 1 ppm of the endotoxin expressed by KnockOut, 6 days
Description: as §3
as §3, with “sp” for “spp.”, “abamectin.” for “spinosad.”
as §3, with “sp” for “spp.”, “emamectin benzoate.” for “spinosad.”

[7] = non-transgenic cotton, spray mixture with conventional CryIIIA-toxin, each 100, 50, 10, 5, 1 ppm (comparison to CryIIIA cotton)
[8] = non-transgenic cotton, spray mixture with conventional CryIIIA-toxin, each 100, 50, 10, 5, 1 ppm (comparison to CryIa(c) cotton)
[9] = transgenic cotton expressing δ-endotoxin CryIIIA, spray 100, 50, 10, 5, 1 ppm, evaluation 3 to 10 days
[10] = transgenic cotton expressing δ-endotoxin CryIa(c), spray 100, 50, 10, 5, 1 ppm, evaluation 3 to 10 days

abamectin
control of the tested insects (% action: reduction in population or feeding damage) [1, 7]: insufficient | control of the tested insects (% action: reduction in population or feeding damage) [1, 8]: insufficient | control of the tested insects (% action: reduction in population or feeding damage) [1, 9]: superior | control of the tested insects (% action: reduction in population or feeding damage) [1, 10]: superior | control of Spodoptera spp. on plot (a) [2]: Improved control | control level on plot (b) [2]: ≤ 80% | control of the tested insects (% action: reduction in population or feeding damage) [3, 7]: insufficient | control of the tested insects (% action: reduction in population or feeding damage) [3, 8]: insufficient | control of the tested insects (% action: reduction in population or feeding damage) [3, 9]: superior | control of the tested insects (% action: reduction in population or feeding damage) [3, 10]: superior | control of the tested insects (% action: reduction in population or feeding damage) [4, 7]: insufficient | control of the tested insects (% action: reduction in population or feeding damage) [4, 8]: insufficient | control of the tested insects (% action: reduction in population or feeding damage) [4, 9]: superior | control of the tested insects (% action: reduction in population or feeding damage) [4, 10]: superior | control of Heliothis on plot (a) [5]: Improved control | control level on plot (b) [5]: ≤ 80% | control of Ostrinia nubilalis on plot (a) [6]: Improved control | control level on plot (b) [6]: ≤ 80%

emamectin-benzoate
control of the tested insects (% action: reduction in population or feeding damage) [1, 7]: insufficient | control of the tested insects (% action: reduction in population or feeding damage) [1, 8]: insufficient | control of the tested insects (% action: reduction in population or feeding damage) [1, 9]: superior | control of the tested insects (% action: reduction in population or feeding damage) [1, 10]: superior | control of Spodoptera spp. on plot (a) [2]: Improved control | control level on plot (b) [2]: ≤ 80% | control of the tested insects (% action: reduction in population or feeding damage) [3, 7]: insufficient | control of the tested insects (% action: reduction in population or feeding damage) [3, 8]: insufficient | control of the tested insects (% action: reduction in population or feeding damage) [3, 9]: superior | control of the tested insects (% action: reduction in population or feeding damage) [3, 10]: superior | control of the tested insects (% action: reduction in population or feeding damage) [4, 7]: insufficient | control of the tested insects (% action: reduction in population or feeding damage) [4, 8]: insufficient | control of the tested insects (% action: reduction in population or feeding damage) [4, 9]: superior | control of the tested insects (% action: reduction in population or feeding damage) [4, 10]: superior | control of Heliothis on plot (a) [5]: Improved control | control level on plot (b) [5]: ≤ 80% | control of Ostrinia nubilalis on plot (a) [6]: Improved control | control level on plot (b) [6]: ≤ 80%

spinosad
control of the tested insects (% action: reduction in population or feeding damage) [1, 7]: insufficient | control of the tested insects (% action: reduction in population or feeding damage) [1, 8]: insufficient | control of the tested insects (% action: reduction in population or feeding damage) [1, 9]: superior | control of the tested insects (% action: reduction in population or feeding damage) [1, 10]: superior | control of Spodoptera spp. on plot (a) [2]: Improved control | control level on plot (b) [2]: ≤ 80% | control of the tested insects (% action: reduction in population or feeding damage) [3, 7]: insufficient | control of the tested insects (% action: reduction in population or feeding damage) [3, 8]: insufficient | control of the tested insects (% action: reduction in population or feeding damage) [3, 9]: superior | control of the tested insects (% action: reduction in population or feeding damage) [3, 10]: superior | control of the tested insects (% action: reduction in population or feeding damage) [4, 7]: insufficient | control of the tested insects (% action: reduction in population or feeding damage) [4, 8]: insufficient | control of the tested insects (% action: reduction in population or feeding damage) [4, 9]: superior | control of the tested insects (% action: reduction in population or feeding damage) [4, 10]: superior | control of Heliothis on plot (a) [5]: Improved control | control level on plot (b) [5]: ≤ 80% | control of Ostrinia nubilalis on plot (a) [6]: Improved control | control level on plot (b) [6]: ≤ 80%
